Consider 1 molecule from paper PMC10700596 (Nature Communications, 2023).

Where “and” joins values, the source holds several entries; their conditions need not be identical. Equal entries are not always repeated. Entries after “also recorded” stand apart in the source; their conditions may differ.

The subject of the assay is mice. It is filed as in vivo.

Turning to `O=C([O-])C1CCC2(CC1)CC(Nc1ncnc3[nH]c4c(F)cccc4c13)C2.[Na+]` (centres unmarked) [Compound 77, [Na+].[O-]C(=O)C1CCC2(CC(C2)NC=3N=CN=C4NC=5C(F)=CC=CC5C34)CC1], where the note is “30 mg/kg i.p. daily on four consecutive days”, the “effect on CFA-induced paw edema” value was “significantly reduced the progression of CFA-induced inflammation; also recorded: significantly slowed the development of paw edema”. For the setting “30 mg/kg i.p. daily on four consecutive days after CFA”, the “reduction of paw thickness versus the control group” value is listed as “up to 20%”. The “Thickness D1 %BL” value (77 30 mg/kg, CFA day 1, 1 h after dosing, % of CFA D1 thickness, individual mice 6-10 and Average, 30 mg/kg) is 92.0% and 93.2% and 87.6% and 98.7% and 95.8%. Moreover, the “Thickness D1” value (77 30 mg/kg, CFA day 1, 1 h after dosing, individual mice 6-10 and Average, 30 mg/kg) was 3.58 and 3.3 and 3.4 and 3.89 and 3.68. Moreover, the “Thickness D2 (1h) %BL” value (77 30 mg/kg, CFA day 2, 1 h, % of CFA D1 thickness, individual mice 6-10 and Average, 30 mg/kg) is 115.7% and 120.9% and 116.5% and 109.1% and 119.8%. Further, under “77 30 mg/kg, CFA day 2, 1 h, individual mice 6-10 and Average, 30 mg/kg”, the “Thickness D2 (1h)” value is 4.5 and 4.28 and 4.52 and 4.3 and 4.6. Also, the “Thickness BL D2” value (77 30 mg/kg, CFA day 2 before that day's dose (vehicle head: CFA D2), individual mice 6-10 and Average, 30 mg/kg) is 4.81 and 4.39 and 4.69 and 4.16 and 4.59. In addition, the “Thickness BL D2 %” value (77 30 mg/kg, CFA day 2 before that day's dose, % of CFA D1 thickness, individual mice 6-10 and Average, 30 mg/kg) was 123.7% and 124.0% and 120.9% and 105.6% and 119.5%. In addition, the “Thickness D3 (1h) %” value (77 30 mg/kg, CFA day 3, 1 h, % of CFA D1 thickness, individual mice 6-10 and Average, 30 mg/kg) is 128.5% and 117.8% and 103.9% and 101.5% and 122.4%. For the same molecule, the “Thickness D3 (1h)” value (77 30 mg/kg, CFA day 3, 1 h, individual mice 6-10 and Average, 30 mg/kg) is 5 and 4.17 and 4.03 and 4 and 4.7. Also, for the setting “77 30 mg/kg, CFA day 3 before that day's dose, % of CFA D1 thickness, individual mice 6-10 and Average, 30 mg/kg”, the “Thickness CFA D3 %” value was 131.9% and 121.8% and 110.3% and 105.1% and 128.9%. The “Thickness CFA D3” value (77 30 mg/kg, CFA day 3 before that day's dose, individual mice 6-10 and Average, 30 mg/kg) was 5.13 and 4.31 and 4.28 and 4.14 and 4.95. Further, the “Thickness D4 (1h) %” value (77 30 mg/kg, CFA day 4, 1 h, % of CFA D1 thickness, individual mice 6-10 and Average, 30 mg/kg) is 113.1% and 107.3% and 103.1% and 103.6% and 104.7%. The “Thickness D4 (1h)” value (77 30 mg/kg, CFA day 4, 1 h, individual mice 6-10 and Average, 30 mg/kg) is 4.4 and 3.8 and 4 and 4.08 and 4.02. The “Thickness CFA D4 %” value (77 30 mg/kg, CFA day 4 before that day's dose, % of CFA D1 thickness, individual mice 6-10 and Average, 30 mg/kg) is 118.3% and 110.2% and 107.5% and 106.1% and 109.1%. In addition, the “Thickness CFA D4” value (77 30 mg/kg, CFA day 4 before that day's dose, individual mice 6-10 and Average, 30 mg/kg) was 4.6 and 3.9 and 4.17 and 4.18 and 4.19. In addition, the “Thickness CFA D5 %” value (77 30 mg/kg, CFA day 5, % of CFA D1 thickness, individual mice 6-10 and Average, 30 mg/kg) is 100.0% and 107.3% and 97.4% and 90.6% and 104.2%. Further, under “77 30 mg/kg, CFA day 5, individual mice 6-10 and Average, 30 mg/kg”, the “Thickness CFA D5” value is 3.89 and 3.8 and 3.78 and 3.57 and 4. In addition, under “77 30 mg/kg, CFA day 7, % of CFA D1 thickness, individual mice 6-10 and Average, 30 mg/kg”, the “Thickness CFA D7 %” value was 102.8% and 96.0% and 90.2% and 86.0% and 106.8%. The “Thickness CFA D7” value (77 30 mg/kg, CFA day 7, individual mice 6-10 and Average, 30 mg/kg) was 4 and 3.4 and 3.5 and 3.39 and 4.1.
